Results from US20250269062A1, “METHODS FOR IN VIVO EDITING OF A LIVER GENE” (INTELLIA THERAPEUTICS, INC., priority 2021, published 2025).
“Also recorded” adds a separate entry of the source.

Key:
[1] = Population pharmacokinetics (POPPK) model and simulations of LP01; parameters: species or system human; conditions: interim POPPK model, 15 ATTRv-PN subjects
Protocol: An interim POPPK model was developed for NTLA-2001 analyte LP01 based on a published model using NONMEM software (Version 7.5.0, ICON Clinical Research LLC, Blue Vell, PA). There were 290 observations in 15 ATTRv-PN subjects for this analysis. Parameter values for this model and goodness of fit plots were determined (not shown). The relationship between body weight and the estimated elimination clearance was determined, together with the modeled linear relationship.
FIG. 26 provides the distribution of simulated AUC by weight quartile following administration of 1 mg/kg (left panel) and 80 mg (right panel) NTLA-2001. […] Likewise, following 80 mg NTLA-2001, there is again overlap of simulated LP01 AUC across weight quartiles. […] The ratio of simulated mean exposures in the 4th ([90.3-146] kg) to the 1st weight quartile ([48-71.7] kg) is 1.25 for 1 mg/kg NTLA-2001 and 0.81 for 80 mg NTLA-2001. Simulations identified NTLA-2001 80 mg as the fixed dose equivalent to 1.0 mg/kg.

[2] = Clinical plasma pharmacokinetics of NTLA-2001 components (LC-MS/MS for Lipid A and DMG-PEG2k, qRT-PCR for guide RNA and mRNA); type: in vivo, human; conditions: for plasma concentration-time profile: following single IV infusion of NTLA-2001, interim
Text: Plasma pharmacokinetic methods were developed and validated to quantify 4 components of NTLA-2001: ionizable Lipid A (also referred to as LP01), DMG-PEG2k lipid, guide RNA, and mRNA. Lipid A and DMG-PEG2k are quantified by liquid chromatography with tandem mass spectrometry (LC-MS/MS) method. Assay signal [ratio of area under the curve of reference standard over internal standard (IS, using isotopic labelled reference standard)] vs. Concentration response standard curve is used. QCs and unknown sample signal are interpolated from standard curve to determine plasma concentrations. Both guide RNA and mRNA are quantified by qRT-PCR. Signal Cycle Threshold (Ct) vs. Concentration standard curve is used. QCs and unknown samples were interpolated from standard curve to quantify plasma concentrations. Urine PK methods were developed and validated for Lipid A and DMG-PEG2k to characterize excretion.
Preliminary plasma PK data are available for the four components of NTLA-2001 (ionizable Lipid A, DMG-PEG2k lipid, guide RNA, and mRNA). […] FIG. 24. Data for other components not shown.

## CCCCC/C=C\C/C=C\CCCCCCCC(=O)OCC(COC(=O)CCC(OCCCCCCCC)OCCCCCCCC)COC(=O)OCCCN(CC)CC (stereo not shown) [LP01, (9Z,12Z)-3-((4,4-bis(octyloxy)butanoyl)oxy)-2-((((3-(diethylamino)propoxy)carbonyl)oxy)methyl)propyl octadeca-9,12-dienoate]
[1]
  relationship between body weight and estimated elimination clearance: less than proportional
[2]
  plasma concentration-time profile: rapid decline from peak levels, followed by a secondary peak, and then a log-linear phase; also recorded: declines rapidly from peak and then exhibits a secondary peak and log-linear phase
[2]; listed as NTLA-2001 ionizable lipid
  plasma concentration-time profile: rapid decline from peak levels followed by a secondary peak and then a log-linear phase
[2]; human, plasma, single IV infusion of NTLA-2001 at 0.1 to 1.0 mg/kg, range across doses, preliminary, read-out: mean (% CV) terminal t1/2
  half-life: 19.7 to 24.8 h
